Earlier results on one compound are cited in patent US20240226071A9, “SUSTAINED RELEASE OSMOTIC-CONTROLLED PHARMACEUTICAL COMPOSITION AND PREPARATION METHOD THEREOF” (Anxo Pharmaceutical Co., Ltd., priority 2022, published 2024).

As to `O=C1[C@@H]2[C@H]3CC[C@H](C3)[C@@H]2C(=O)N1C[C@@H]1CCCC[C@H]1CN1CCN(c2nsc3ccccc23)CC1` [lurasidone], the solubility in water entry was “lower than 0.1 mg/mL”.
